From PMC10875103, “Selective synthesis of rebaudioside M2 through structure-guided engineering of glycosyltransferase UGT94D1” (Frontiers in Bioengineering and Biotechnology, 2024)

Biological target: T1, UGT94D1 (Sesamum indicum, UniProt A0A6I9T8N3, F119I/D188P)
T1 construct: gene LOC105161042; full ORF, synthetic codon-optimised gene; Ni-NTA purified and desalted
Assay: UPLC glucosylation assay, […] h turnover
Format: biochemical
Settings: 0.5 mM Reb D, 5 mM UDPG, 10 mM MnCl2, 50 mM Tris-HCl pH 8.0, 35 °C

T1 sequence (A0A6I9T8N3 entry or part of it F119I/D188P): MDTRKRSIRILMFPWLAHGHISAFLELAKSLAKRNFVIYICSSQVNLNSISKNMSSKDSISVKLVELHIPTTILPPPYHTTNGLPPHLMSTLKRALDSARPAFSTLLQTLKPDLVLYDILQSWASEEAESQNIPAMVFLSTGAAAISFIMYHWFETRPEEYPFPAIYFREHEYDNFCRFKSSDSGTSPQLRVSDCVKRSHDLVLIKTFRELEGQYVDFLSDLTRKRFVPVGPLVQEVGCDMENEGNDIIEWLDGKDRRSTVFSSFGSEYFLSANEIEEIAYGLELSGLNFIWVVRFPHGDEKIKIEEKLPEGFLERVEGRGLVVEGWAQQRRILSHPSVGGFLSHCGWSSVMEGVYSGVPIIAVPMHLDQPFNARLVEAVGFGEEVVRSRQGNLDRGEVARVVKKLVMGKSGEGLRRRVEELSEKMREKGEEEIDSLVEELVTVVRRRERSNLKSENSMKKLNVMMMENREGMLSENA

C=C1C[C@@]23CC[C@H]4[C@@](C)(CCC[C@@]4(C)C(=O)O[C@@H]4O[C@H](CO)[C@@H](O)[C@H](O)[C@H]4O[C@@H]4O[C@H](CO)[C@@H](O)[C@H](O)[C@H]4O)[C@@H]2CC[C@]1(O[C@@H]1O[C@H](CO)[C@@H](O)[C@H](O[C@@H]2O[C@H](CO)[C@@H](O)[C@H](O)[C@H]2O)[C@H]1O[C@@H]1O[C@H](CO)[C@@H](O)[C@H](O)[C@H]1O)C3 [rebaudioside D]
relative activity: catalytic activities of mutants F119I/D188P and F119P/D188P were further improved
